The source made the active and inactive calls.
Tests used:
Cryptococcus neoformans [1] = assay: Antifungal activity against Cryptococcus neoformans H99 assessed as fungal growth inhibition at <= […] uM measured after 48 hrs by resazurin assay; format: functional, organism-based
[2] = Microsomal stability in CD-1 mouse liver microsomes assessed as parent compound remaining at 1 uM measured at 60 mins by LC-MS/MS analysis; format: ADME, Microsome; conditions: read-out: Stability
Candida albicans [3] = assay: Antifungal activity against Candida albicans clinical isolate 2 assessed as fungal growth inhibition at <= […] uM measured after 48 hrs by resazurin assay; format: functional, organism-based
[4] = Half life in CD-1 mouse liver microsomes at 1 uM measured up to 120 mins by LC-MS/MS analysis
Cryptococcus neoformans [5] = assay: Antifungal activity against Cryptococcus neoformans H99 assessed as fungal growth inhibition at < […] uM measured after 48 hrs by resazurin assay; format: functional, organism-based
[6] = Displacement of Cy3-labeled geldanamycin from HSP90 in Candida albicans clinical isolate 2 cell lysate measured after […] by fluorescence polarization assay; format: subcellular
[7] = Selectivity index, ratio of kd for binding affinity to recombinant human Hsp90 NBD expressed in Escherichia coli Rosetta2 to Kd for binding affinity to recombinant Candida albicans clinical isolate 2 HSP90 NBD (E7 to K218 residues) expressed in Escherichia coli Rosetta2
Candida albicans [8] = assay: Antifungal activity against Candida albicans clinical isolate 2 assessed as fungal growth inhibition measured after 48 hrs in presence of fluconazole by resazurin assay; format: functional; conditions: clinical isolate 2, 48 h
Candida albicans [9] = assay: Fungicidal activity against Candida albicans clinical isolate 2 incubated for 48 hrs in presence of fluconazole followed by replating on YDP agar plate and measured after 24 hrs; format: functional, organism-based

SMILES | Activity (Cryptococcus neoformans [1]) | Activity (Candida albicans [3]) | other results
Cn1nc(-c2ccc(OC(F)(F)F)cc2)cc1Nc1cc(O)cc(O)c1C(=O)N1Cc2cccnc2C1 | Active | Active | remaining at 1 h, 1 µM [2]: 3.9%
COc1cccc(-c2cc(Nc3cc(O)cc(O)c3C(=O)N3Cc4cccnc4C3)n(C)n2)c1 | Active | Active | remaining at 1 h, 1 µM [2]: 0%; half-life at 2 h, 1 µM [4]: 3.44 min
Cn1nc(C2CCCCC2)cc1Nc1cc(O)cc(O)c1C(=O)N1Cc2cn[nH]c2C1 | Active | Active | remaining at 1 h, 1 µM [2]: 0.06%; half-life at 2 h, 1 µM [4]: 2.74 min
Cc1ccccc1-c1cc(Nc2cc(O)cc(O)c2C(=O)N2Cc3ccccc3C2)n(C)n1 | Active | Active | Activity (Cryptococcus neoformans [5]): Active
Cn1nc(-c2ccc(C(C)(C)C)cc2)cc1Nc1cc(O)cc(O)c1C(=O)N1Cc2cn[nH]c2C1 | Active | Active | remaining at 1 h, 1 µM [2]: 0.5%; half-life at 2 h, 1 µM [4]: 6.44 min
COc1ccc(Cn2nc(C)cc2Nc2cc(O)cc(O)c2C(=O)N(C)CC2CC2)cc1 | Active | Active | EC50 [6]: > 9 µM
COc1ccc(CO\N=C2/C=C/C=C\[C@H]3O[C@@H]3C[C@@H](C)OC(=O)c3c(O)cc(O)cc3C2)cc1 |  |  | Selectivity Index [7]: > 25
CC(C)c1ccc(Cn2nccc2Nc2cc(O)cc(O)c2C(=O)N2Cc3ccccc3C2)cc1 | Active | Active | remaining at 1 h, 1 µM [2]: 1.8%; half-life at 2 h, 1 µM [4]: 3.1 min
COc1cccc(-c2cc(Nc3cc(O)cc(O)c3C(=O)N3Cc4ccccc4C3)n(C)n2)c1 | Active | Active | remaining at 1 h, 1 µM [2]: 0%; half-life at 2 h, 1 µM [4]: 3.15 min
COc1cccc(-c2cc(Nc3cc(O)cc(O)c3C(=O)N3Cc4cn[nH]c4C3)n(C)n2)c1 | Active | Active | remaining at 1 h, 1 µM [2]: 7%
Cn1nc(-c2ccc(OC(F)(F)F)cc2)cc1Nc1cc(O)cc(O)c1C(=O)N1Cc2ccccc2C1 | Active | Active | MIC (Candida albicans [8]): 12.5 µM
COc1ccc(Cn2nc(-c3ccccc3)cc2Nc2cc(O)cc(O)c2C(=O)N(C)CC2CC2)cc1 | Active | Active | EC50 [6]: > 9 µM
COc1ccc(Cn2nc(C)cc2Nc2cc(O)cc(O)c2C(=O)N(C)Cc2ccccc2)cc1 | Active | Active | EC50 [6]: > 6 µM
Cn1nc(-c2ccc(OC(F)(F)F)cc2)cc1Nc1cc(O)cc(O)c1C(=O)N1Cc2cn[nH]c2C1 | Active | Active | remaining at 1 h, 1 µM [2]: 20.6%
Cc1cc(Nc2cc(O)cc(O)c2C(=O)N2Cc3ccccc3C2)n(Cc2ccccc2Cl)n1 | Active | Active | Activity (Candida albicans [9]): Active
COc1ccc(Cn2nc(C3CC3)cc2Nc2cc(O)cc(O)c2C(=O)N2Cc3cn[nH]c3C2)cc1 | Active | Active | 
O=C(c1c(O)cc(O)cc1Nc1ccnn1Cc1ccccc1)N1Cc2cn[nH]c2C1 | Active | Active | 
COc1ccc(Cn2ncc(-c3ccccc3)c2Nc2cc(O)cc(O)c2C(=O)N2Cc3ccccc3C2)cc1 | Active | Active | 
COc1ccc(Cn2nc(-c3ccccc3)cc2Nc2cc(O)cc(O)c2C(=O)N2Cc3cccc(F)c3C2)cc1 | Active | Active | 
COc1ccc(Cn2nc(C)cc2Nc2cc(O)cc(O)c2C(=O)N2Cc3ccccc3C2)cc1 | Active | Active | 
Cn1nc(-c2ccc(C(F)(F)F)cc2)cc1Nc1cc(O)cc(O)c1C(=O)N1Cc2ccccc2C1 | Active | Active | 
COc1ccc(Cn2nc(C3CC3)cc2Nc2cc(O)cc(O)c2C(=O)N2Cc3cccnc3C2)cc1 | Active | Active | 
COc1ccc(Cn2nc(-c3ccccc3)cc2Nc2cc(O)cc(O)c2C(=O)N2Cc3ccc(NC4CCN(C)CC4)cc3C2)cc1 | Active | Active | 

SMILES | Activity (Cryptococcus neoformans [1]) | Activity (Candida albicans [3]) | other results
COc1ccc(Cn2nc(C)cc2Nc2cc(O)cc(O)c2C(=O)N2Cc3cn[nH]c3C2)cc1 | Active | Active | 
Cc1cccc(-c2cc(Nc3cc(O)cc(O)c3C(=O)N3Cc4cn[nH]c4C3)n(C)n2)c1 | Active | Active | remaining at 1 h, 1 µM [2]: 1.8%; half-life at 2 h, 1 µM [4]: 9.38 min
Cn1nc(-c2ccccc2)cc1Nc1cc(O)cc(O)c1C(=O)N1Cc2cccnc2C1 | Active | Active | 
O=C(c1c(O)cc(O)cc1Nc1ccnn1-c1ccccc1)N1Cc2cccnc2C1 | Active | Active | 
COc1ccc(Cn2nc(-c3ccccc3)cc2Nc2cc(O)cc(O)c2C(=O)N2Cc3cn[nH]c3C2)cc1 | Active | Active | 
COc1ccc(Cn2nc(C)cc2Nc2cc(O)cc(O)c2C(=O)N2Cc3ccc(F)cc3C2)cc1 | Active | Active | 
COc1ccc(Cn2ncc(Cc3ccccc3)c2Nc2cc(O)cc(O)c2C(=O)N2Cc3ccccc3C2)cc1 | Active | Active | 
Cc1ccc(-c2cc(Nc3cc(O)cc(O)c3C(=O)N3Cc4cccnc4C3)n(C)n2)cc1 | Active | Active | 
Cn1nc(-c2ccc(C(C)(C)C)cc2)cc1Nc1cc(O)cc(O)c1C(=O)N1Cc2cccnc2C1 | Active | Active | 
O=C(c1c(O)cc(O)cc1Nc1ccnn1Cc1ccc(C(F)(F)F)cc1)N1Cc2cccnc2C1 | Active | Active | 
CCN(CC)C(=O)c1c(O)cc(O)cc1Nc1cc(-c2ccccc2)nn1Cc1ccc(OC)cc1 | Active | Active | EC50 [6]: > 10 µM
COc1ccc(Cn2nc(-c3ccccc3)cc2Nc2cc(O)cc(O)c2C(=O)N2Cc3ccccc3C2)cc1 | Active | Active | Activity (Candida albicans [9]): Active
Cc1ccc(-c2cc(Nc3cc(O)cc(O)c3C(=O)N3Cc4cn[nH]c4C3)n(C)n2)cc1 | Active | Active | 
Cn1nc(-c2cccc(C(F)(F)F)c2)cc1Nc1cc(O)cc(O)c1C(=O)N1Cc2cn[nH]c2C1 | Active | Active | 
O=C(c1c(O)cc(O)cc1Nc1ccnn1Cc1ccco1)N1Cc2cccnc2C1 | Active | Active | 
COc1ccc(Cn2ncc(C)c2Nc2cc(O)cc(O)c2C(=O)N2Cc3ccccc3C2)cc1 | Active | Active | Activity (Candida albicans [9]): Active
COc1ccc(Cn2nc(-c3ccccc3)cc2Nc2cc(O)cc(O)c2C(=O)N2Cc3cccnc3C2)cc1 | Active | Active | 
Cn1nccc1Nc1cc(O)cc(O)c1C(=O)N1Cc2ccccc2C1 | Active | Active | 
O=C(c1c(O)cc(O)cc1Nc1ccnn1Cc1ccc(C(F)(F)F)cc1)N1Cc2cn[nH]c2C1 | Active | Active | 
CC(C)n1nccc1Nc1cc(O)cc(O)c1C(=O)N1Cc2cccnc2C1 | Active | Active | 
CC(C)(C)n1nc(-c2ccccc2)cc1Nc1cc(O)cc(O)c1C(=O)N1Cc2cn[nH]c2C1 | Active | Active | 
O=C(c1c(O)cc(O)cc1Nc1ccnn1Cc1cccnc1)N1Cc2ccccc2C1 | Active | Active | 

Source: ChEMBL document CHEMBL4402526, “Design and Synthesis of Fungal-Selective Resorcylate Aminopyrazole Hsp90 Inhibitors” (J Med Chem, 2020)
